Earlier results on one compound are cited in EP1691200A1, “The use of BNP-type peptides and ANP-type peptides for assessing the risk of suffering from a cardiovascular complication as a consequence of volume overload” (F. HOFFMANN-LA ROCHE AG, priority 2005, dated 2006).

Take `CS(=O)(=O)c1ccc(C2=C(c3ccccc3)C(=O)OC2)cc1` [rofecoxib]: the “additional cardiovascular incidents (myocardial infarction, stroke)” value (25 mg rofecoxib compared with a placebo, after 18 months of follow-up) is given as 16 per 1,000 treated patients. For the same compound, for the setting “25 mg rofecoxib compared with a placebo, early post-observation phase”, the blood pressure levels result was “higher blood pressure levels”. Besides, the “rise in the rate of serious thromboembolic incidents” value (APPROVE study, patients without any recognisable cardiovascular risk, led to premature discontinuation) is listed as 3.9 times.
